In patent publication US20220281902A1, “MIT[…] IMPROVE METABOLIC SYNDROME DURING AGING” (The Board of Trustees of the Leland Stanford Junior …, priority 2019, published 2022):

Columns and labels:
[1] = Stability of compound in drinking water; type: physicochemical; conditions: drinking water pH=7-7.4, room temperature, 20-30 days
Text: Previously, the inventors developed series of derivatives of the tetrazole, thiazole, and 1,2,3-triazole families that were thought to be reversible inhibitors of the cytochrome c oxidase (CcO) model and characterized as possible moderate inhibitors of mitochondrial respiration (Barile et al. (2012), Proceedings of the National Academy of Sciences of the United States of America, 109:7, pp. 2539-2543). In this research, a triphenyl phosphonium thiazole derivative (referred to herein as HG1a-1) was randomly selected. Overall, no mice died due to oral administration of compound during 18-20 months. […]
The C57BL/6 mice were maintained on a standard purified mouse diet (PicoLab 5053 Rodent Diet 20; Lab Diets) until they reached 2 months of age when the treatments started. […] Body weights were measured weekly at the same time each week. Food and water intake were measured once every month for 3-6 consecutive days at the same time each month. Water consumption was measured for 2 weeks prior to the start of administration. Compound was generated and modified for better permeability in to mitochondria, evaluated by HPLC, was 96%-97%. […] Aliquots were collected from each batch and measured by HPLC to confirm stability of the compound. […] Rectal body temperature was measured monthly, as described previously. Whole blood samples, and histopathology were analyzed after 14 months of treatment. […]

ATP production = assay: ATP level in liver of treated mice; type: in vivo, mouse
Text: Measurement of ATP level in liver. For measuring ATP, cellular ATP in livers was extracted using an ATP extraction kit of an ATP assay kit (Sigma-Aldrich, MAKI 90). The ATP level was quantitatively measured by the absorbance at 570 nm (A570).

[2] = system: ASC1, Wdnm1-like, FGF-21, PGC-1α transcripts; assay: qPCR of adipogenesis regulators and white fat inducing transcripts in visceral fat; type: in vivo, mouse
Description: Gene expression & RT qPCR Analyses. Total RNA was isolated using a commercially available kit (OMEGA bio-tek, R6812-02) according to the manufacturer's instructions. cDNA was generated using the PrimeScript RT reagent kit (TAKARA, RR047A). Gene expression were determined by qPCR as described in the product manual. The analysis was evaluated by Bio-Rad Real-Time System (CFX Connect™).
RNAs from 10 mice (5 treated and 5 Ctrl.) VF fat or livers were isolated by using omega Bio-Tek reagents, and cDNA was transcribed by (TAKARA). qPCR was then performed by using iQ SYBR Green mastermix bioscience on a CFX96 Real-Time System/C1000 Thermal Cycler (Bio-Rad).

Cc1ncsc1CCOC(=O)C[P+](c1ccccc1)(c1ccccc1)c1ccccc1.[Br-] [HG1a-1, (2-(2-(4-Methylthiazol-5-yl)Ethoxy)-2-Oxoethyl) Triphenylphosphonium Bromide]
compound maintained intact in drinking water [1]: 95%-99 | decrease of ATP level in liver compared to controls (ATP production; 6 months): 50% | decrease of ATP level in liver compared to controls (ATP production; long term treated mice): 25% | ASC1 transcript decrease vs control ([2]; 14 months of treatment): > 9 fold | FGF-21 transcript ([2]; 14 months of treatment): remained unchanged | Wdnm1-like transcript decrease vs control ([2]; 14 months of treatment): 30 fold | PGC-1α transcript ([2]; aged mice): increased
